According to patent publication US9187497B2, “Substituted pyrido[3,2-e]pyrrolo[1,2-a]pyrazines as inhibitors of poly(ADP-ribose)polymerase (PARP)” (Takeda Phamaceutical Company Limited, priority 2009, dated 2015):

The compounds below were run against T1, PARP (Homo sapiens, UniProt P09874) (assay: PARP ELISA colorimetric assay of inhibition of PARP catalytic activity (IC50)). Conditions: pIC50=-log(IC50), IC50 in molar concentration; ELISA-based PARP kit, 10 minutes of catalysis.
T1 construct: purchased Trevigen 4684-096-01 (enzyme); kit 4684-096-K HT
T1 sequence (P09874 whole entry): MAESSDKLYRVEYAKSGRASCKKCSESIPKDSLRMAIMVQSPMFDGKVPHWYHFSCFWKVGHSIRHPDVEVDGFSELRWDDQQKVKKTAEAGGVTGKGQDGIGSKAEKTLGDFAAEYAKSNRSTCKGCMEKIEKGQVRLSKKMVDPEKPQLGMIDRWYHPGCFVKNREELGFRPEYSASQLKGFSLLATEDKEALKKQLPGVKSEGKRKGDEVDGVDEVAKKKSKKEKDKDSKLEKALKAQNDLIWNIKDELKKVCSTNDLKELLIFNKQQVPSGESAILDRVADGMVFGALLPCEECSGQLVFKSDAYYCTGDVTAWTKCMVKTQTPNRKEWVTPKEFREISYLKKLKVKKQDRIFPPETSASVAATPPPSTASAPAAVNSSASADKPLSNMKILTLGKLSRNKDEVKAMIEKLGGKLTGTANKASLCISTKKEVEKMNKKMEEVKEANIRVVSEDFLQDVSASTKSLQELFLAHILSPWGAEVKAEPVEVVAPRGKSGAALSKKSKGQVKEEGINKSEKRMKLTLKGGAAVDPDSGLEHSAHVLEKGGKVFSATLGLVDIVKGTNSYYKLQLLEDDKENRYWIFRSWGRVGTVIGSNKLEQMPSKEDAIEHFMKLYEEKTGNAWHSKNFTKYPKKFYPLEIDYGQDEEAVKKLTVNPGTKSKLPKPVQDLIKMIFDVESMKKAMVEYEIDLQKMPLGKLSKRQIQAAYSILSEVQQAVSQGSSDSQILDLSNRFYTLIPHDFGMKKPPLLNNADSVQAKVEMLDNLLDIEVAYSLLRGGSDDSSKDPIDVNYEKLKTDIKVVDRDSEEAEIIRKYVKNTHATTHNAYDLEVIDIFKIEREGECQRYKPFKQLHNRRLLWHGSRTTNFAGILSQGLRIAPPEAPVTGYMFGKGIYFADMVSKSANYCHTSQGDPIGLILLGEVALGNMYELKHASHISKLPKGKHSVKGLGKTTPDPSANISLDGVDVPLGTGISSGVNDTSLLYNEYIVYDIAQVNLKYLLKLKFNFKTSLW
Format: biochemical
Protocol: Inhibition Constant (IC50) from PARP ELISA
Inhibition of PARP catalytic activity was determined by use of an ELISA-based colorimetric PARP/Apoptosis Assay kit (part number 4684-096-K HT, Trevigen). To each histone coated well in the 96-well plate supplied by the manufacturer (part number 4677-096-P) is added 39 μl of PARP buffer (part number 4671-096-02) and 1 μl of test compound dissolved in DMSO (diluted serially 3-fold 11 times). After mixing, 5 μl of 0.1 nM PARP (part number 4684-096-01) is added and the solution allowed to stand at ambient temperature for 10 minutes. PARP catalysis is initiated with the addition of 5 μl of 100 μM β-nicotinamide adenine dinucleotide (NAD+) (part number 4684-096-02) with activated DNA (part number 4671-096-06). After 10 minutes of catalysis the reaction is quenched by solvent aspiration followed by irrigation of the assay wells 4 times with phosphate buffered saline (PBS) containing 0.1% t-Octylphenoxypolyethoxyethanol (Triton® X-100). Mouse Anti-poly ADP ribose (PAR) monoclonal antibody, goat antimouse immunoglobulin G (IgG)-horse radish peroxidase (HRP) conjugate and HRP substrate are added according to the manufacture's specifications to generate a colorimetric signal proportional to PARP catalytic activity. An IC50 for the test compound is calculated from the equation Absorbance=(Amax−background)/(1+([cmpd]/IC50)^n)+background fit to the 12 point test compound concentration gradient via nonlinear least squares.

Row | IC50 | Compound
1 | ≥ 50.1 nM | COc1ncccc1-c1ccc(N2CCN(Cc3cnc4c(c3)NC(=O)[C@@H]3CCCCN43)CC2)cc1 [Compound 169, (S)-3-((4-(4-(2-methoxypyridin-3-yl)phenyl)piperazin-1-yl)methyl)-7,8,9,10-tetrahydro-5H-dipyrido[1,2-a:3′,2′-e]pyrazin-6(6aH)-one]
2 | ≥ 50.1 nM | O=C1Nc2cc(CN3CCN(c4ccc(-c5cccnc5)cc4)CC3)cnc2N2CCCC[C@@H]12 [Compound 158, (S)-3-((4-(4-(pyridin-3-yl)phenyl)piperazin-1-yl)methyl)-7,8,9,10-tetrahydro-5H-dipyrido[1,2-a:3′,2′-e]pyrazin-6(6aH)-one]
3 | ≥ 50.1 nM | O=C1Nc2cc(CN3CCN(c4ccc(-c5ccccc5CO)cc4)CC3)cnc2N2CCCC[C@@H]12 [Compound 160, (S)-3-((4-(2′-(hydroxymethyl)biphenyl-4-yl)piperazin-1-yl)methyl)-7,8,9,10-tetrahydro-5H-dipyrido[1,2-a:3′,2′-e]pyrazin-6(6aH)-one]
4 | ≥ 50.1 nM | Cc1cnccc1-c1ccc(N2CCN(Cc3cnc4c(c3)NC(=O)[C@@H]3CCCCN43)CC2)cc1 [Compound 155, (S)-3-((4-(4-(3-methylpyridin-4-yl)phenyl)piperazin-1-yl)methyl)-7,8,9,10-tetrahydro-5H-dipyrido[1,2-a:3′,2′-e]pyrazin-6(6aH)-one]
5 | 15.8 to 39.8 nM | O=C1Nc2cc(CN3CCN(c4ccc(-c5cnccn5)cc4)CC3)cnc2N2CCCC[C@@H]12 [Compound 168, (S)-3-((4-(4-(pyrazin-2-yl)phenyl)piperazin-1-yl)methyl)-7,8,9,10-tetrahydro-5H-dipyrido[1,2-a:3′,2′-e]pyrazin-6(6aH)-one]
6 | ≥ 50.1 nM | O=C1CCC=C1c1ccc(N2CCN(Cc3cnc4c(c3)NC(=O)[C@@H]3CCCCN43)CC2)cc1 [Compound 163, (S)-3-((4-(4-(5-oxocyclopent-1-enyl)phenyl)piperazin-1-yl)methyl)-7,8,9,10-tetrahydro-5H-dipyrido[1,2-a:3′,2′-e]pyrazin-6(6aH)-one]
7 | 15.8 to 39.8 nM | Cc1ccc(-c2ccc(N3CCN(Cc4cnc5c(c4)NC(=O)[C@@H]4CCCCN54)CC3)cc2)cn1 [Compound 164, (S)-3-((4-(4-(6-methylpyridin-3-yl)phenyl)piperazin-1-yl)methyl)-7,8,9,10-tetrahydro-5H-dipyrido[1,2-a:3′,2′-e]pyrazin-6(6aH)-one]
8 | ≥ 50.1 nM | Cc1ccccc1-c1ccc(N2CCN(Cc3cnc4c(c3)NC(=O)[C@@H]3CCCCN43)CC2)cc1 [Compound 154, (S)-3-((4-(2′-methylbiphenyl-4-yl)piperazin-1-yl)methyl)-7,8,9,10-tetrahydro-5H-dipyrido[1,2-a:3′,2′-e]pyrazin-6(6aH)-one]
9 | ≥ 50.1 nM | Cc1ccc(-c2ccc(N3CCN(Cc4cnc5c(c4)NC(=O)[C@@H]4CCCCN54)CC3)cc2)s1 [Compound 159, (S)-3-((4-(4-(5-methylthiophen-2-yl)phenyl)piperazin-1-yl)methyl)-7,8,9,10-tetrahydro-5H-dipyrido[1,2-a:3′,2′-e]pyrazin-6(6aH)-one]
10 | ≥ 50.1 nM | COc1cnccc1-c1ccc(N2CCN(Cc3cnc4c(c3)NC(=O)[C@@H]3CCCCN43)CC2)cc1 [Compound 153, (S)-3-((4-(4-(3-methoxypyridin-4-yl)phenyl)piperazin-1-yl)methyl)-7,8,9,10-tetrahydro-5H-dipyrido[1,2-a:3′,2′-e]pyrazin-6(6aH)-one]
11 | ≥ 50.1 nM | Cc1ccsc1-c1ccc(N2CCN(Cc3cnc4c(c3)NC(=O)[C@@H]3CCCCN43)CC2)cc1 [Compound 162, (S)-3-((4-(4-(3-methylthiophen-2-yl)phenyl)piperazin-1-yl)methyl)-7,8,9,10-tetrahydro-5H-dipyrido[1,2-a:3′,2′-e]pyrazin-6(6aH)-one]

Second part, the compound before the results:

Row | Compound | IC50
12 | COc1ncc(-c2ccc(N3CCN(Cc4cnc5c(c4)NC(=O)[C@@H]4CCCCN54)CC3)cc2)cn1 [Compound 152, (S)-3-((4-(4-(2-methoxypyrimidin-5-yl)phenyl)piperazin-1-yl)methyl)-7,8,9,10-tetrahydro-5H-dipyrido[1,2-a:3′,2′-e]pyrazin-6(6aH)-one] | 15.8 to 39.8 nM
13 | Nc1cccc(-c2ccc(N3CCN(Cc4cnc5c(c4)NC(=O)[C@@H]4CCCCN54)CC3)cc2)n1 [Compound 145, (S)-3-((4-(4-(6-aminopyridin-2-yl)phenyl)piperazin-1-yl)methyl)-7,8,9,10-tetrahydro-5H-dipyrido[1,2-a:3′,2′-e]pyrazin-6(6aH)-one] | ≥ 50.1 nM
14 | O=C1Nc2cc(CN3CCN(c4ccc(-c5ccncc5)cc4)CC3)cnc2N2CCCC[C@@H]12 [Compound 148, (S)-3-((4-(4-(pyridin-4-yl)phenyl)piperazin-1-yl)methyl)-7,8,9,10-tetrahydro-5H-dipyrido[1,2-a:3′,2′-e]pyrazin-6(6aH)-one] | 15.8 to 39.8 nM
15 | O=C1Nc2cc(CN3CCN(c4ccc(-c5cncnc5)cc4)CC3)cnc2N2CCCC[C@@H]12 [Compound 151, (S)-3-((4-(4-(pyrimidin-5-yl)phenyl)piperazin-1-yl)methyl)-7,8,9,10-tetrahydro-5H-dipyrido[1,2-a:3′,2′-e]pyrazin-6(6aH)-one] | ≥ 50.1 nM
16 | O=C1Nc2cc(CN3CCN(c4ccc(-c5ccccc5)cc4)CC3)cnc2N2CCCC[C@@H]12 [Compound 149, (S)-3-((4-(biphenyl-4-yl)piperazin-1-yl)methyl)-7,8,9,10-tetrahydro-5H-dipyrido[1,2-a:3′,2′-e]pyrazin-6(6aH)-one] | ≥ 50.1 nM
17 | CC(C)N1CC(=O)Nc2cc(CN3CCC(c4ccc(Cl)cc4)CC3)cnc21 [Compound 96, 7-((4-(4-chlorophenyl)piperidin-1-yl)methyl)-4-isopropyl-3,4-dihydropyrido[2,3-b]pyrazin-2(1H)-one] | ≥ 50.1 nM
18 | COc1ccc(-c2ccc(N3CCN(Cc4cnc5c(c4)NC(=O)[C@@H]4CCCCN54)CC3)cc2)cn1 [Compound 150, (S)-3-((4-(4-(6-methoxypyridin-3-yl)phenyl)piperazin-1-yl)methyl)-7,8,9,10-tetrahydro-5H-dipyrido[1,2-a:3′,2′-e]pyrazin-6(6aH)-one] | ≥ 50.1 nM
19 | O=C1Nc2cc(CN3CCN(c4ccc(-c5ccsc5)cc4)CC3)cnc2N2CCCC[C@@H]12 [Compound 146, (S)-3-((4-(4-(thiophen-3-yl)phenyl)piperazin-1-yl)methyl)-7,8,9,10-tetrahydro-5H-dipyrido[1,2-a:3′,2′-e]pyrazin-6(6aH)-one] | 15.8 to 39.8 nM

These compounds were tested on Jurkat cell line (assay: PARP cellular chemopotentiation assay (MTS cell viability with and without TMZ)). Conditions: ratio of EC50 for inhibition of cell viability without and with 100 μM TMZ; Jurkat cells, 96 hours of treatment.
Format: cell-based
Protocol: Potentiation Factor (PF50) Determination from PARP Cellular Chemopotentiation Assay
Jurkat cell line was maintained according to the supplier (American Type Culture Collection (Rockville, Md.)). Cells were seeded in 96-well tissue culture microplates at 10,000 cells per well and cultured for 24 hours prior to addition of compounds, TMZ (Temozolomide) or DMSO (dimethylsulfoxide) vehicle. After 96 hours of treatment, the conversion of MTS ([3-(4,5-dimethylthiazol-2-yl)-5-(3-carboxymethoxyphenyl)-2-(4-sulfophenyl)-2H-tetrazolium, inner salt], Promega, Madison, Wis.) by metabolically active cells was determined through measuring the OD490 nm with a Spectramax microplate reader (Molecular Devices, San Diego, Calif.). To generate concentration-response curves, cells were treated in duplicate with a range of serial compound dilutions (final DMSO concentration was 0.5%) in the absence or presence of 100 μM TMZ chemoreagent. The percentage of viable cells per well was calculated by correction for background and normalizing against DMSO-treated cells. EC50 values for inhibition of cell viability were calculated using XLfit4 MicroSoft Excel curve-fitting software. Chemopotentiation factor PF50 was calculated as the ratio of EC50 values of cells co-treated without and with TMZ, respectively.

Row | Compound | PF50
20 | O=C1Nc2cc(CN3CCN(c4ccc(O)cc4)CC3)cnc2N2CCC[C@@H]12 [Compound 35, (S)-3-((4-(4-hydroxyphenyl)piperazin-1-yl)methyl)-6a,7,8,9-tetrahydropyrido[3,2-e]pyrrolo[1,2-a]pyrazin-6(5H)-one] | ≧0
21 | O=C1Nc2cc(CN3CCN(c4ccc(C(F)(F)F)cc4)CC3)cnc2N2CCC[C@@H]12 [Compound 48, (S)-3-((4-(4-(trifluoromethyl)phenyl)piperazin-1-yl)methyl)-6a,7,8,9-tetrahydropyrido[3,2-e]pyrrolo[1,2-a]pyrazin-6(5H)-one] | ≧0
22 | N#Cc1ccc(N2CCN(Cc3cnc4c(c3)NC(=O)[C@@H]3CCCN43)CC2)c(F)c1F [Compound 18, (S)-2,3-difluoro-4-(4-((6-oxo-5,6,6a,7,8,9-hexahydropyrido[3,2-e]pyrrolo[1,2-a]pyrazin-3-yl)methyl)piperazin-1-yl)benzonitrile] | >10
23 | O=C1Nc2cc(CN3CCN(c4cc(F)cc(F)c4)CC3)cnc2N2CCC[C@@H]12 [Compound 46, (S)-3-((4-(3,5-difluorophenyl)piperazin-1-yl)methyl)-6a,7,8,9-tetrahydropyrido[3,2-e]pyrrolo[1,2-a]pyrazin-6(5H)-one] | ≧0
24 | O=C1Nc2cc(CN3CCN(c4nc5ccccc5o4)CC3)cnc2N2CCC[C@@H]12 [Compound 41, (S)-3-((4-(benzo[d]oxazol-2-yl)piperazin-1-yl)methyl)-6a,7,8,9-tetrahydropyrido[3,2-e]pyrrolo[1,2-a]pyrazin-6(5H)-one] | ≧0
25 | CC(C)NC(=O)c1ccc(N2CCN(Cc3cnc4c(c3)NC(=O)[C@@H]3CCCN43)CC2)nc1 [Compound 9, (S)—N-isopropyl-6-(4-((6-oxo-5,6,6a,7,8,9-hexahydropyrido[3,2-e]pyrrolo[1,2-a]pyrazin-3-yl)methyl)piperazin-1-yl)nicotinamide] | ≧0
